The values below are quoted from earlier work in US10543503B1, “Methods of delivery of encapsulated perfluorocarbon taggants” (Copilot Ventures Fund III LLC, priority 2011, dated 2020).

Structures are written as SMILES.

The subject of data set [1] is cytochrome P-450. Conditions: PFD given to rats; hepatic metabolizing enzymes.
Data set [2] concerns aldrin-epoxidase. Conditions: rats, following PFD treatment.
Data set [3] deals with cytochrome P450 IV. Conditions: rats, following PFD treatment; enzyme induced by fatty acids and perfluoronated fatty acids.
Data set [4] deals with cytochrome P-450 IA1 and IA1. Conditions: rats, following PFD treatment; enzymes induced by 3-methylcholanthrene-type inducers.
For data set [5], the system named is benzphetamine-N-demethylase. Conditions: rats, following PFD treatment.
The test system of data set [6] is cytochrome P-450 IIA1 and IIA2 (a.k.a. cytochrome P450b and cytochrome P450e). The settings on record: rats, following PFD treatment.

In the case of `FC1(F)C(F)(F)C(F)(F)C2(F)C(F)(F)C(F)(F)C(F)(F)C(F)(F)C2(F)C1(F)F` (stereo not drawn) [PFD, perfluorodecalin], in data set [1], the “induction of cytochrome P-450” value is recorded as “induce cytochrome P-450 in a manner similar to phenobarbital”. In addition, in data set [2], the activity of aldrin-epoxidase result is listed as “increased”. Moreover, the “activity of cytochrome P450 IV” value in data set [3] is given as “unaffected”. Further, the “activities of cytochrome P-450 IA1 and IA1” value in data set [4] was “unaffected”. The “activity of benzphetamine-N-demethylase” value in data set [5] is listed as “increased”. In addition, the “increase of activities of cytochrome P-450 IIA1 and IIA2” value in data set [6] is “approximately two-fold”.
